According to BindingDB's records for doi:10.3109/14756366.2013.768987 (Medical University, 2014):

How the values were obtained:
DNA topoisomerase 1 = biological target: T1, DNA topoisomerase 1 (Homo sapiens, UniProt P11387); assay: Topoisomerase I Relaxation Assay; details: pH 7.8; 37 °C
T1 sequence (P11387 whole entry): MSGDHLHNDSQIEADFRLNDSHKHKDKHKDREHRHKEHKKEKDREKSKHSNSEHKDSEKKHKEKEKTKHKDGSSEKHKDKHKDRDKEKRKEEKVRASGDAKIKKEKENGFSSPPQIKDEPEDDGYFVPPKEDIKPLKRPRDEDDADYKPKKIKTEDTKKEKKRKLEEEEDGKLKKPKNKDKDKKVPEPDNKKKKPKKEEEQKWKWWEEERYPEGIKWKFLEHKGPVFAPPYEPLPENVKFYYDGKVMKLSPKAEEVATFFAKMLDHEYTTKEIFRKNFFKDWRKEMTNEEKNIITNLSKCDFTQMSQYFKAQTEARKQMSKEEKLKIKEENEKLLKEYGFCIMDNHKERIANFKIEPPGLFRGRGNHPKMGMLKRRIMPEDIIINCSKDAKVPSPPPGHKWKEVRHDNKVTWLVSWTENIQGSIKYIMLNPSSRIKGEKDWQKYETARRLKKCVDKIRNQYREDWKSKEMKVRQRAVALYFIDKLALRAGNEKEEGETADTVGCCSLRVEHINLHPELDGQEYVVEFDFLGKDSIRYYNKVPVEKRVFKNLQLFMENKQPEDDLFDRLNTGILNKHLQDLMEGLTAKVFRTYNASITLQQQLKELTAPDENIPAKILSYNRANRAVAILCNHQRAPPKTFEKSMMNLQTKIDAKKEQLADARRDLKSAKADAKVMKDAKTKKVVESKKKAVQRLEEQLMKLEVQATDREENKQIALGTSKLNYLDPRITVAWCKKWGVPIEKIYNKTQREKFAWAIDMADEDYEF
Description: Supercoiled pHOT1 DNA (0.5 μg) was incubated with four units of human topoisomerase I in relaxation buffer (10mM Tris-HCl (pH 7.8), 1mM EDTA, 0.15M NaCl, 0.1% BSA, 0.1 spermidine, 5% glycerol), in the presence of varying concentrations of the test compounds. Reactions were carried out at 37 °Cfor 1 h and then terminated by the addition of sodium dodecyl sulfate (SDS) to 0.25% and proteinase K to 50 μg/ml. The reaction mixture was subjected to electrophoresis through a 0.8% agarose gel containing […] in TAE buffer ([…] and 1mM EDTA). The gels were stained with ethidium bromide and photographed under UV light. For the quantitative determination of topoisomerase concentration activity, photographic negatives were scanned and the area representing supercoiled DNA, migrating as a single band at the bottom of the gel was measured using UVI-KS4000i gel documentation and analysis system (SyngenBiotech, Sacramento, CA).

[1] = biological target: DNA topoisomerase I (Homo sapiens); assay: Supercoiled pHOT1 DNA (0.5 μg) was incubated with four units of human topoisomerase I in relaxation buffer (10mM Tris-HCl (pH 7.8), 1mM EDTA, 0.15M NaCl, 0.1% BSA, 0.1 spermidine, 5% glycerol), in the presence of varying concentrations of the test compounds. Reactions were carried out at 37 °Cfor 1 h and then terminated by the addition o

COc1cc([C@@H]2c3cc4c(cc3[C@@H](O[C@@H]3O[C@@H]5CO[C@@H](C)O[C@H]5[C@H](O)[C@H]3O)[C@H]3COC(=O)[C@H]23)OCO4)cc(OC)c1O [4'-Demethylepipodophyllotoxin 9-(4,6-O-(R)-ethylidene-beta-D-glucopyranoside)]
IC50 (DNA topoisomerase 1): > 350 µM

Cc1nc[nH]c1C(=O)NNC(=S)NC(=O)c1ccccc1 [DNA topoisomerase inhibitor, 1]
IC50 (DNA topoisomerase 1): 100 µM
IC50 [1]: 50 µM

O=C(NC(=S)NNC(=O)c1cc2ccccc2[nH]1)c1ccccc1 [DNA topoisomerase inhibitor, 2]
IC50 (DNA topoisomerase 1): 100 µM
IC50 [1]: 50 µM

O=C(NNC(=S)Nc1ccccc1)C1CCNCC1 [DNA topoisomerase inhibitor, 3]
IC50 (DNA topoisomerase 1): 250 µM
IC50 [1]: 250 µM

COc1ccc(NC(=S)NNC(=O)C2CCNCC2)cc1 [DNA topoisomerase inhibitor, 4]
IC50 (DNA topoisomerase 1): 250 µM
IC50 [1]: 250 µM

O=C(NNC(=S)Nc1ccc(I)cc1)C1CCNCC1 [DNA topoisomerase inhibitor, 5]
IC50 (DNA topoisomerase 1): 250 µM
IC50 [1]: 250 µM

O=C(NNC(=S)Nc1ccc(Br)cc1)C1CCNCC1 [DNA topoisomerase inhibitor, 6]
IC50 (DNA topoisomerase 1): 250 µM
IC50 [1]: 250 µM

CCc1ccc(NC(=S)NNC(=O)C2CCNCC2)cc1 [DNA topoisomerase inhibitor, 7]
IC50 (DNA topoisomerase 1): > 350 µM
IC50 [1]: > 350 µM

CCNC(=S)NNC(=O)C1CCNCC1 [DNA topoisomerase inhibitor, 8]
IC50 (DNA topoisomerase 1): > 350 µM
IC50 [1]: > 350 µM
